Data from ChEMBL document CHEMBL5226287, “Small organic molecules targeting the energy metabolism of Mycobacterium tuberculosis” (Eur J Med Chem, 2021).
Starred links: 1 amine or outer side, 2 acyl side, 3 side chain; linkers in the order of their positions; H or OH if unused. Non-standard residues stand in square brackets, D forms with d. Residues, ends and D or L forms follow the SMILES beside them. ξ: configuration not given here. *: point of attachment. X1 = CCC(=O)C[C@@H](O)C[C@@H](C)C[C@H](N[*:1])C(=O)[*:2]; Alaψ(CH2NMeCH2CH2OH) = C[C@@H](CN(C)CCO)N*; Decanoyl(2R-Me) = CCCCCCCC[C@@H](C)C(=O)*; Ile(3ξ) = CCC(C)[C@H](N)C(=O)O; ξβ3hP = O=C(O)CC1CCCN1; Aib = CC(C)(N)C(=O)O

Experiments:
[1] = Inhibition of Mycobacterium smegmatis cytochrome bd oxidase with ATP overexpression inverted membrane vesicles; type: cell membranes, Mycobacterium tuberculosis, Membrane vesicle
[2] = Inhibition of Mycobacterium smegmatis cytochrome bd oxidase with ATP synthase overexpression inverted membrane vesicles; type: cell membranes, Mycobacterium tuberculosis, Membrane vesicle
[3] = Inhibition of Mycobacterium bovis BCG cytochrome bd oxidase with ATP synthase overexpression inverted membrane vesicles; type: cell membranes, Mycobacterium tuberculosis variant bovis, Membrane vesicle

Row | Structure (SMILES) | IC50 [1] | IC50 [2] | IC50 [3]
1 | O=C(CNC1CCCCC1)N(c1ccccc1)c1ccccc1 | 10.4 µM |  | 
2 | O=C(CNC1CCCC1)N(c1ccccc1)c1ccccc1 | 14 µM |  | 
3 | CCCCCCCC[C@@H](C)C(=O)N1CCCC1CC(=O)N[C@@H](C[C@H](C)C[C@H](O)CC(=O)CC)C(=O)NC(C)(C)C(=O)NC(C)(C)C(=O)N[C@H](C(=O)N[C@H](C(=O)NC(C)(C)C(=O)NC(C)(C)C(=O)N[C@@H](C)CN(C)CCO)C(C)C)C(C)CC (stereo partly drawn) ({Decanoyl(2R-Me)}-[ξβ3hP][X1][Aib][Aib][Ile(3ξ)]V[Aib][Aib]-{Alaψ(CH2NMeCH2CH2OH)}) |  | 0.5 µM | 5.2 µM
